Several values for one entry are separate records, joined by “and”; a condition that tells them apart may be missing. Equal values may be shown once.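 In this assay, cells in 96-well plates receive the compound at five concentrations for 48 hours. Endpoints are linearly interpolated between the surrounding concentrations. At the GI50, growth is halved. At the TGI there is no net growth.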 *1 amine or outer side, *2 acyl side, *3 side chain or, on linkers, in order; H or OH if unused. Where a SMILES comes first, the peptide text is derived from it. Bridges are numbered along the chain shown (N, C = ends). Roman numbers before positions name the chains, in order. [ ]: non-standard residue; d: D form. Actinocin(9to1) = Cc1c2oc3c(C)ccc(C(=O)[*:1])c3nc-2c(C(=O)[*:2])c(N)c1=O; NMeF = CN[CH](Cc1ccccc1)C(=O)O; Sar = CNCC(=O)O
Tests used:
Assay in all cases: NCI anticancer screen, dose series, 48 h
[1] = test system: DU-145 prostate
[2] = test system: HCT-116 colon
[3] = test system: HCT-15 colon
[4] = test system: LOX IMVI melanoma
[5] = test system: M14 melanoma
[6] = test system: NCI-H460 lung
[7] = test system: NCI-H522 lung
[8] = test system: OVCAR-4 ovarian
[9] = test system: SF-539 CNS
[10] = test system: SNB-75 CNS

SMILES | GI50 [1] [µM] | TGI [1] | GI50 [2] [µM] | TGI [2] | GI50 [3] | TGI [3] [µM] | GI50 [4] | TGI [4] [µM] | GI50 [5] [µM] | TGI [5] [µM] | GI50 [6] | TGI [6] | GI50 [7] [µM] | TGI [7] [µM] | GI50 [8] [µM] | TGI [8] | GI50 [9] [µM] | TGI [9] | GI50 [10] [µM] | TGI [10] [µM]
COc1cc(NC(=O)C2=C(N3CCOCC3)/C(=C/c3ccc(Cl)cc3)CC2)cc(OC)c1OC | > 100 | > 100 µM | 28.5 | > 100 µM | > 100 µM | > 100 | > 100 µM | > 100 | > 100 | > 100 | > 100 µM | > 100 µM | 17.2 | > 100 | 4.27 | > 100 µM | 36 | > 100 µM | 6.24 | 33.9
C[C@@H]1COCCN1c1cc(C2(O)C[C@H]3CC[C@@H](C2)O3)c2cnn(-c3ccn[nH]3)c2n1 (stereo partly drawn) | 0.0553 | 2.46 µM | 0.118 | > 100 µM | 0.0394 µM | > 42.2 | 0.0246 µM | 0.145 | 0.0383 | 0.785 | 0.0334 µM | 1.43 µM | 0.141 | 1.01 | 0.0397 | 0.419 µM | 0.023 | 0.0946 µM | 0.043 | 0.411
CCN(Cc1c(Cl)cccc1Cl)c1ccc(CO)c(Cl)c1 | 14.4 | 27.9 µM | < 0.0379 | 11.3 µM | 10.4 µM | 23.5 | 16.9 µM | 32.6 | 15.5 | 30.9 | 0.171 µM | 13.9 µM | 11.1 | 24.9 | 0.194 | 8.24 µM | 15.1 | 28.6 µM | 11 | 25.3
C=CC1=C(C)C2=NC1=CC1=NC(=C(CC)/C1=C\O)C=C1N=C3C(=C1C)C(=O)[C@H](C(=O)OC)C3=C1NC(=C2)[C@@H](C)[C@@H]1CCC(=O)O |  | > 100 µM |  | > 100 µM |  | > 100 |  | > 100 |  | > 100 |  | > 100 µM |  | > 100 |  | > 100 µM |  | > 100 µM |  | > 100
Cc1coc2c1C(OC(=O)C(C)C)C1(C)C(C)CCC(O)C1C2=O (stereo not drawn) |  | > 100 µM |  | > 100 µM |  | > 100 |  | > 100 |  | > 100 |  | > 100 µM |  | > 100 |  | > 100 µM |  | > 100 µM |  | > 100
O=C1OCC2=C1C(c1ccccc1)c1cc3c(cc1N2CCO)OCCO3 (stereo not drawn) | 0.304 | 2.73 µM | 0.226 | > 18.7 µM | 0.518 µM | > 50 | 0.36 µM | > 50 | 0.23 | 1.66 | 0.193 µM | 1.96 µM | 0.0593 | 0.165 | 0.587 | > 50 µM | 0.298 |  | 0.121 | 0.427
CN(C)CCCn1c(-c2nonc2N)nc2cnccc21 | > 25 | > 25 µM | > 25 | > 25 µM | > 25 µM | > 25 | > 25 µM | > 25 | > 25 | > 25 | > 25 µM | > 25 µM | > 25 | > 25 | > 25 | > 25 µM | > 25 | > 25 µM | 8.06 | > 25
CC(O)c1cc(C(=O)N[C@@H](C)Cn2ccc(-c3ccc(C#N)c(Cl)c3)n2)n[nH]1 (stereo partly drawn) | > 100 | > 100 µM | 45.7 | > 100 µM | > 100 µM | > 100 | 87.2 µM | > 100 | 32.8 | > 100 | > 100 µM | > 100 µM | 39.4 | > 100 | 16.3 | > 100 µM | > 100 | > 100 µM | 52.4 | > 100
N#CC1C=Cc2c(ccc3ccccc23)N1C(=O)c1ccccc1 (stereo not drawn) | 0.26 | 1.97 µM | 0.0637 | > 100 µM | 0.184 µM | > 100 | 0.319 µM | > 100 | 0.209 | > 100 | 0.191 µM | 7.56 µM | 0.0274 | 0.0924 | 1.47 | > 100 µM | 0.238 |  | 0.226 | 63.8
Cc1c2oc3c(C)ccc(C(=O)NC4C(=O)NC(C(C)C)C(=O)N5CCCC5C(=O)N(C)CC(=O)N(C)C(Cc5ccccc5)C(=O)OC4C)c3nc-2c(C(=O)NC2C(=O)NC(C(C)C)C(=O)N3CCCC3C(=O)N(C)CC(=O)N(C)C(Cc3ccccc3)C(=O)OC2C)c(N)c1=O (stereo not drawn) (I: TVP[Sar][NMeF] / II: TVP[Sar][NMeF]; ester I:1-I:C, II:1-II:C; linker I:N-II:N via Actinocin(9to1); configuration not given here) |  | < 0.01 µM and 0.0698 µM | < 0.01 | 0.194 µM and > 1 µM | < 0.0147 µM and 0.0622 µM | > 31.6 | < 0.01 µM and 0.00103 µM | < 0.01 |  | 0.126 | < 0.01 µM and 0.00074 µM | < 0.01 µM and 0.0206 µM | 0.00155 | 0.0201 |  | < 0.0109 µM and 0.033 µM |  | < 0.01 µM and 0.0439 µM |  | 0.0645

Source: PubChem BioAssay (NCI)
